Measurements: ChEMBL document CHEMBL1201862, “PubChem BioAssay data set” (2004)
Active and inactive are the calls of the source.

Tests used:
[1] = target: Heat shock protein HSP 90-alpha (Homo sapiens, UniProt P07900); format: functional, organism-based
[2] = Luminescence Cell-Based Dose Retest to Confirm Inhibitors of Cancer Stem Cells. [Related pubchem assays (depositor defined):AID2717, AID2721]; format: functional; conditions: Homo sapiens
[3] = target: T1, Oxysterols receptor LXR-beta (Homo sapiens, UniProt P55055); format: functional, cell-based;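 further: agonist activity at LXR measured by a cell-based luminescence readout across a dose range, run as a counterscreen for daf-12 agonists; HEK293 cells with Gal4-LXR fusion and GAL4-driven luciferase reporter; potency for activation of Gal4-LXR reporter so compounds are agonists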
T1 sequence (P55055 whole entry): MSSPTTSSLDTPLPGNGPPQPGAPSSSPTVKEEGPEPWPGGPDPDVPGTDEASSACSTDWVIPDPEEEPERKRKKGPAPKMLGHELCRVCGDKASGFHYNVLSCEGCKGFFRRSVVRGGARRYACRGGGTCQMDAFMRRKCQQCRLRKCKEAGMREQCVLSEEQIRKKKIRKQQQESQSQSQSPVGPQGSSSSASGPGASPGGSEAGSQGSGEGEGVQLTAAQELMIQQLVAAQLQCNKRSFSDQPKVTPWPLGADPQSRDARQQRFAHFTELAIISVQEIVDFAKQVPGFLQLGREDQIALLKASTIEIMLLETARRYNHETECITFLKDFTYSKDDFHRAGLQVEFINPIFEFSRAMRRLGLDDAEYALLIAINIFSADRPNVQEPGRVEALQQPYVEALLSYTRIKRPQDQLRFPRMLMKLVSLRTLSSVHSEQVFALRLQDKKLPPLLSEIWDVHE

[4] = toxicity toward HepG2 liver cells – cell-based, plate reader, cherry-pick, antagonist series, cytotoxicity control, dose response (AID 743416); format: functional
[5] = viability loss in HEK293 cells – cell-based, plate reader, cherry-picked samples, cytotoxicity control, dose response (AID 743446); format: functional
[6] = A549 cell cytotoxicity, dose response, cytotoxicity control, plate reader, cherry-pick, antagonist series (AID 743412); format: functional, cell-based
[7] = blockade of melanocortin 4 receptor signaling – cell-based, plate reader, cherry pick, counter-screen for LGR2 antagonist project, dose response (AID 743444); format: functional;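 further: transfected HEK 293 cells stimulated with alpha-MSH peptide; potency of inhibitors of the alpha-MSH evoked signal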
[8] = blockers of bursicon-stimulated LGR2 cAMP reporter – cell-based, HEK293, CRE-luciferase reporter, cherry pick, set 2, dose response (AID 743343); format: functional;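 further: transfected cells were stimulated with diluted bursicon conditioned medium after compound addition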
[9] = blockers of HIV-1 ZM109 envelope-driven cell-cell fusion – HeLa effector, CEM target cells, luciferase, cherry-pick, dose response (AID 652058); format: functional, cell-based;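 further: luciferase signal from HIV-1 Env mediated cell-cell fusion of effector and target cells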
[10] = HIV-1 AD8 envelope cell-cell fusion blockers – cherry-pick, dose response (AID 652062); format: functional, cell-based;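 further: luciferase signal from cell-cell fusion driven by HIV-1 clade B AD8 Env; potency is for inhibitors of fusion seen as a drop in luminescence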
[11] = off-target signal loss in HeLa-CEM21 co-culture – HeLa F-luc CTL cells, cherry-picked, counter-screen for HIV-1 Env fusion inhibitor project, dose response (AID 652040); format: functional, cell-based;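 further: potency for signal decrease marking cytotoxic or nonspecific inhibition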
[12] = viability loss in CEM21 cells – cell-based, CellTiter-Glo luminescence, cherry-picked, cytotoxicity control for viral fusion inhibitor project, dose response (AID 652042); format: functional;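 further: potency for signal decrease meaning cytotoxicity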
[13] = blockers of HIV-1 envelope-mediated cell-cell fusion – cherry-pick, dose response (AID 652057); format: functional, cell-based
[14] = target: Cytochrome P450 2C9 (Homo sapiens, UniProt P11712)
[15] = target: Cyclin-dependent kinase 5/CDK5 activator 1 (Homo sapiens, UniProt Q00535); assay: blockade of human CDK5 activity – biochemical, cherry-picked samples, set 2, dose response (AID 504545)
[16] = target: T2, DNA repair and recombination protein RAD54-like (Homo sapiens, UniProt Q92698); assay: RAD54 Holliday junction migration blockers – biochemical, fluorescence, cherry-picked samples, dose series, confirmation (AID 651657); format: functional
T2 sequence (Q92698 whole entry): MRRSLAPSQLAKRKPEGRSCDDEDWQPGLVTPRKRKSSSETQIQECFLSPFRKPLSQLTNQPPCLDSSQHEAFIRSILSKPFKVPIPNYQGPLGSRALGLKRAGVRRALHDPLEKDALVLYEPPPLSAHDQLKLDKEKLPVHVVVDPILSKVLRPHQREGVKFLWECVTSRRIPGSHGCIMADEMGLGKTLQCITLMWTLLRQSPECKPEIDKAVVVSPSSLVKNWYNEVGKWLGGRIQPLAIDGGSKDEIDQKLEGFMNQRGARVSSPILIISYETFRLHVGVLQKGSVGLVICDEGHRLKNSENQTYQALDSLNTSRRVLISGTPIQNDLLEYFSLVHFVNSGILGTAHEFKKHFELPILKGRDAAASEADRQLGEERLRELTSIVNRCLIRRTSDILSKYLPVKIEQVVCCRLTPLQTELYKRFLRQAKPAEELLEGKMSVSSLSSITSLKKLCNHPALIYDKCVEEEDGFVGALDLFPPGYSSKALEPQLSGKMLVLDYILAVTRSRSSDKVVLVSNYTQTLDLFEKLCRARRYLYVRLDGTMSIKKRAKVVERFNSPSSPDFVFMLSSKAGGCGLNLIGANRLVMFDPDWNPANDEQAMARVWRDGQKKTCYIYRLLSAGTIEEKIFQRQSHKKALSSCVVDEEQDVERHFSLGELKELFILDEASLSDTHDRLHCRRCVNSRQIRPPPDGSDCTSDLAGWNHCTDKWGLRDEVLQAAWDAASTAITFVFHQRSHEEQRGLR

[17] = target: T3, DNA repair protein RAD52 homolog (Homo sapiens, UniProt P43351); format: functional, biochemical
T3 sequence (P43351 whole entry): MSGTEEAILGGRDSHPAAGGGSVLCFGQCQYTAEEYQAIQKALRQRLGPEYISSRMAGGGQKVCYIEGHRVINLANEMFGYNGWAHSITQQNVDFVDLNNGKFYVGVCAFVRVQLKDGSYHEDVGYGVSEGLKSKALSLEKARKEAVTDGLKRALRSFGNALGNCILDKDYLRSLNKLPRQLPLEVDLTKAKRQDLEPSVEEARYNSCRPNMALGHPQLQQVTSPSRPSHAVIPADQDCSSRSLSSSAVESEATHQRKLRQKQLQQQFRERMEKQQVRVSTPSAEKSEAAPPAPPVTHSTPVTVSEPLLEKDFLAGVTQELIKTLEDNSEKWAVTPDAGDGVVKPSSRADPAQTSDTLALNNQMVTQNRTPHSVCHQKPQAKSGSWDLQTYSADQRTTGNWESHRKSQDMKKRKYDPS

[18] = OVCAR8 cell viability loss – plate reader, dry powder samples, PAX8 project, dose response (AID 743197); format: functional, cell-based; conditions: OVCAR-8
[19] = target: Paired box protein Pax-8 (Homo sapiens, UniProt Q06710); assay: PAX8 transcriptional activity inhibition in RMG-I – RMG-I cells, luciferase, cherry-pick, dose response (AID 687027); format: functional, cell-based;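 further: luciferase reporter driven by Pax8 target thyroperoxidase promoter measured by SteadyGlo luminescence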
[20] = general cell-killing toxicity readout – plate reader, dry powder samples, cytotoxicity control for PAX8 inhibitor project, dose response (AID 743021); format: functional, cell-based
[21] = OVCAR-3 cell viability loss – plate reader, dry powder samples, PAX8 inhibitor project, dose response (AID 743044); format: functional, cell-based

Sequence of Paired box protein Pax-8 (Q06710 whole entry): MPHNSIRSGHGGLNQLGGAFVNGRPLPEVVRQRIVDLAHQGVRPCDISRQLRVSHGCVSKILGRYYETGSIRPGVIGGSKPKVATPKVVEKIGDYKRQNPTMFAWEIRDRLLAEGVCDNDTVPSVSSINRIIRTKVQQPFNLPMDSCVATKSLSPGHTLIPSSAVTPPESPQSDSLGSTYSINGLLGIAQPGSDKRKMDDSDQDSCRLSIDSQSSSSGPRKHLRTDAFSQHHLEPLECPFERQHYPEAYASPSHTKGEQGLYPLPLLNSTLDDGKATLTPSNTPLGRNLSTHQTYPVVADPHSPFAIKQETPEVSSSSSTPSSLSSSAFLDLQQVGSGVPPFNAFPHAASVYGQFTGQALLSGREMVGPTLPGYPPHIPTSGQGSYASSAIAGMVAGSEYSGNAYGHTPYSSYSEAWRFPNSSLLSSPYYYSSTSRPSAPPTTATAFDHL
Sequence of Cyclin-dependent kinase 5/CDK5 activator 1 (Q00535 whole entry): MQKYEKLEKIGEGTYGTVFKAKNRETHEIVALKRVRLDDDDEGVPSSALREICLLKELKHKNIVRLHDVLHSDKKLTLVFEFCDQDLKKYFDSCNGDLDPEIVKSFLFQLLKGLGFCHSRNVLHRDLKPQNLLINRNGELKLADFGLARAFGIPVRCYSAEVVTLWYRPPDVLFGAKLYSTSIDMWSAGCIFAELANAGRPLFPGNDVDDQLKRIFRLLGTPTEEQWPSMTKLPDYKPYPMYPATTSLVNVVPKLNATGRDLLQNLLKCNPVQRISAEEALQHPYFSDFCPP
Sequence of Cyclin-dependent kinase 5/CDK5 activator 1 (Q15078 whole entry, further chain): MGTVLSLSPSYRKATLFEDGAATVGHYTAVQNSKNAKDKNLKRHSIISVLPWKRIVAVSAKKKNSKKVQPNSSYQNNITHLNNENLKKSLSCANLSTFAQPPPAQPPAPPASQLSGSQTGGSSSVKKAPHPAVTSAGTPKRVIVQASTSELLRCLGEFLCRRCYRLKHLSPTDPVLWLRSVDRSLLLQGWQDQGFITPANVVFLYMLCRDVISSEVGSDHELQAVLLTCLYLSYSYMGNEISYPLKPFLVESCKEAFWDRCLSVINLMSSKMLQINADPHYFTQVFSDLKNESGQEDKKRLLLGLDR
Sequence of Cytochrome P450 2C9 (P11712 whole entry): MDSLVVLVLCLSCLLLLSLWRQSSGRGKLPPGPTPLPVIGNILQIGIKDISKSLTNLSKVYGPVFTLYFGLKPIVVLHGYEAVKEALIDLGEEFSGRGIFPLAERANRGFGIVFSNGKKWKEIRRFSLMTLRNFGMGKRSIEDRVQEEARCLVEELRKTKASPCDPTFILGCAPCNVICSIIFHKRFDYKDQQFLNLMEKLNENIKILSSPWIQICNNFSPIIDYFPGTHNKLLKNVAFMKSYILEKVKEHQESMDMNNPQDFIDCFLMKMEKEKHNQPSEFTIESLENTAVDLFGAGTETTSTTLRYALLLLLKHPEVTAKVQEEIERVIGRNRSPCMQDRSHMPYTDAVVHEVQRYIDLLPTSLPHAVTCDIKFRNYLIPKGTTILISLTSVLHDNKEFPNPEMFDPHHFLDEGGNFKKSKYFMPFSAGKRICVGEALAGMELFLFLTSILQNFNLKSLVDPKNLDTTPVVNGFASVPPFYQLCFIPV

In the case of `Cc1cc(N=Nc2ccc3ccccc3c2)ccc1O`, the AC50 [1] is reported as 3.92 µM (active), the AC50 [2] is reported as 3.23 µM (active) and the EC50 [3] is reported as > 67.6 µM (inactive).

For `COc1ccc(CC(=O)Nc2cccc(-c3nnc(-c4ccc(C)cc4)o3)c2)cc1OC`, the AC50 [4] was 30.3 µM (active), the AC50 [5] was 10.7 µM (active) and the AC50 [6] was 33.4 µM (active). For the same compound, the AC50 [7] was 8.14 µM (active) and the AC50 [8] was 7.65 µM (active).

With `CC1(C)Cc2c(ccc3ccccc23)C(=O)N1` the AC50 [9] was 8.55 µM (active), the AC50 [10] was 2.95 µM (active) and the AC50 [11] was 14.1 µM (active). For the same compound, the AC50 [12] was 47.6 µM (active), the AC50 [13] was 4.84 µM (active) and the AC50 [14] was “inconclusive”. The AC50 [15] was 22.4 µM (active).

For `CC(=O)Nc1cc(-c2ccc(N3CCN(C)CC3)cc2)cn2c(-c3ccc(S(C)(=O)=O)cc3)cnc12`, the AC50 [16] was 20.3 µM (active) and the AC50 [17] was 4.37 µM (active).

With `COc1ccc(S(=O)(=O)N(C)C[C@H]2OCCCC[C@H](C)Oc3ccc(NS(=O)(=O)c4ccc(F)cc4)cc3C(=O)N([C@@H](C)CO)C[C@@H]2C)cc1` the AC50 [18] was 46.1 µM (active), the AC50 [19] was 4.67 µM (active) and the AC50 [20] was 56.8 µM (active). For the same compound, the AC50 [21] was 21.5 µM (active).

For `Cc1ccc(S(=O)(=O)Nc2ccc3c(c2)C(=O)N([C@H](C)CO)C[C@H](C)[C@@H](CN(C)S(=O)(=O)c2ccc(Cl)cc2)OCCCC[C@H](C)O3)cc1`, the AC50 [18] was > 70 µM (inactive), the AC50 [19] was 3.2 µM (active) and the AC50 [21] was 14.4 µM (active).
